From patent EP1362591A1, “Use of a composition containing 5-androstene-3 beta, 17-alpha diol” (LORIA, Roger M., priority 1996, dated 1997)

Tests used:
ZR-75-1 cells [1] = assay: Cell proliferation assay, tritiated thymidine incorporation; assay type: cell-based, human; conditions: for cell proliferation: Example 1, six day period
Experimental: The βAED, 17 beta-oestradiol and tamoxifen were obtained from Sigma Chemical Company (St. Louis, Missouri). The αAED and Flutamide were obtained from Steriloid, Inc. (Walton, New Hampshire) and Schering Corporation (Kenilworth, New Jersey), respectively. All steroids except βAED were dissolved in ethanol. βAED was dissolved in DMSO:ETHOL (1:1 v/v). Stock solutions were filtered and kept at 4°C. For testing, stock solutions were diluted in media immediately before use. The final concentration of vehicle was always ≤ 0.2% in all samples, and this concentration had no significant cytotoxic effect on the human breast cell cancer cell line designated ZR-75-1 (American Type Culture Collection) as determined by trypan blue exclusion.
The ZR-75-1 cell line (passage 89) was obtained from the American Type Culture Collection (Rockville, Maryland). The cells were cultured in RPMI-1640 medium containing 10% heat-inactivated fetal calf serum, 200 µM L-glutamine, […], 1.5 U/ml penicillin, and 1.5 µg/ml streptomycin in 5% CO2 at 37°C. The cells were passaged twice weekly.
(§1) Cells were first seeded at initial density of 1x10^5 cells per ml in quadruplicates in 24 multi-well flat bottom plates (Costar). Cells were then allowed to adhere and grow in phenol red-free […] media supplemented with 10 % heat-inactivated fetal calf serum (FCS), 200 µM L-glutamine, 10 mM HEPES, 2.5 U/ml penicillin and 2.5 µg/ml streptomycin in 5% CO2 at 37°C. After 48 hours, four wells were sacrificed and counted to determine plating efficiency. In the remaining wells, medium was removed by aspiration and cells in each well were exposed to the media containing the specified steroid. The controls containing only medium or medium with vehicle were also prepared. In all samples, medium was changed every 48 hours. At the pre-established time-point. Cells were removed by trypsinization and washed. Cell number and viability were determined by trypan blue exclusion using a hemocytometer. Parallel cultures were also run to determine cell proliferation.
(§2) For cell proliferation assays, cell suspensions were prepared by trypsinization of cells from cultures prepared in accord with methods described above. Cell viability was determined by trypan blue exclusion. The cells were then seeded in flat-bottom 96-well microtiter plates at a density of 2X10^3 cells/well and were allowed to rest for 48 hours in order to adhere. Non-adherent dead cells were removed by aspiration. Cells were then grown in media without phenol red. Some of the media contained supplements as indicated above. The active agents or vehicle control were added to the media. The cells were then grown for six days. Media was changed on the samples every 48 hours. On day 6, cells were pulsed with 1 µCi[…] for the last 6 hours of incubation before harvesting onto glass filter using a HPD cell harvester (Cambridge Technology, Watertown, Massachusetts) and counted on a KLB scintillation counter.

ZR-75-1 cells [2] = assay: Cell count and viability by trypan blue exclusion; assay type: cell-based, human
Experimental: as §1
Initial tests were carried out to determine the optimal (maximal) dose of αAED required to inhibit growth of the ZR-75-1 cells in in vitro as determined by tritiated tymidine incorporation. […] To ensure that inhibition was not due to cytotoxicity, cell count and viability were assessed by trypan blue exclusion.

P388D1 cells = assay: Growth of lymphoid neoplasm cells in the presence of RU486; assay type: cell-based; conditions: Example 8; RU486 at 0.5 µM and 1.0 µM
Experimental: as §2
Effect of αAED on growth of lymphoid neoplasm (P388D1 cells obtained from the American Type Culture Collection) in the presence of RU486 at concentration of 0.5 µM and 1.0 µM was studied in accord with the methods described above.

RAW 264.7 = assay: Proliferation of murine macrophage myeloma cells; assay type: cell-based; conditions: Example 9
Experimental: as §2
Effects of αAED at doses of 50 ηM and 100 ηM doses on murine macrophage myeloma cells (RAW 264.7, obtained from the American Type Culture Collection) was studied.

Row | Structure (SMILES) | cell proliferation (ZR-75-1 cells [1]; 6.25 ηM) | cell proliferation (ZR-75-1 cells [1]; 25 ηM) | cell proliferation (ZR-75-1 cells [1]; 50 ηM) | proliferation of cells in the presence of βAED (ZR-75-1 cells [1]; Example 2, varied αAED with βAED constant at 2.5 ηM) | proliferation in the presence of estradiol (ZR-75-1 cells [1]; Example 3, higher doses of αAED with 1 ηM estradiol, 6 day period) | antiproliferative effects in the presence of Flutamide (ZR-75-1 cells [1]; Example 4, ≥6.25 ηM αAED) | synergism with RU486 (ZR-75-1 cells [1]; Example 5, RU486 1 µM) | proliferation of cells in the presence of RU486 (ZR-75-1 cells [1]; Example 5, concentrations of αAED with 0.5 µM RU486) | IC50 (ZR-75-1 cells [1]; Homo sapiens, dose and time-dependent inhibition of ZR-75-1 growth, read-out: half-maximal dose (anti-proliferative effect)) | growth of ZR-75-1 cells (ZR-75-1 cells [1]; concentration of 25 ηM or greater) | proliferation of ZR-75-1 cells (ZR-75-1 cells [1]; concentrations between 6.25 and 12.5 ηM, P<0.01 vs vehicle control) | maximal dose (anti-proliferative effect) (ZR-75-1 cells [1]; dose and time-dependent inhibition of ZR-75-1 growth) | effect on the growth of cells (ZR-75-1 cells [1]; doses ranging from 3.13 ηM to 50 ηM, compared to vehicle control after 6 days) | cytotoxicity (cell count and viability) (ZR-75-1 cells [2]) | growth of lymphoid neoplasm in combination with RU486 (P388D1 cells) | proliferation (RAW 264.7; 50 ηM) | proliferation (RAW 264.7; 100 ηM) | antiproliferative effect on the growth of ZR-75-1 cells (ZR-75-1 cells [1]; alone at 100 ηM)
1 | C[C@]12CC[C@H]3[C@@H](CC=C4C[C@@H](O)CC[C@@]43C)[C@@H]1CC[C@H]2O [αAED, 5-androstene 3ß,17α diol] | increasing proliferation | decreasing cell proliferation | marked decrease | decreased proliferation at all concentrations | suppressed proliferation even in the presence of estradiol | greatly enhanced | even greater | synergistic action to decrease proliferation of cells | 50 nM | significantly inhibited the growth | stimulated proliferation | 100 ηM | biphasic effect | not toxic to the cells | increased effectiveness over use of one agent | significant inhibition of proliferation | significant inhibition of proliferation | –
2 | C[C@]12CC[C@H]3[C@@H](CC=C4C[C@@H](O)CC[C@@]43C)[C@@H]1CC[C@@H]2O [βAED, 5-androstene 3ß,17ß diol, reference compound] | – | – | – | – | – | – | – | – | – | – | – | – | – | – | – | – | – | did not have any antiproliferative effect
